Experimental data reported in patent US12441775B2, “BCL-W polypeptides and mimetics for treating or preventing chemotherapy-induced peripheral neuropathy and hearing loss” (Dana-Farber Cancer Institute, Inc., priority 2016, dated 2025).

Key:
[1] = system: axonal mitochondria of E15 DRG neurons; assay: TMRE measurement of mitochondrial membrane potential in microfluidic cultures; format: cell-based, rat; conditions: paclitaxel added to distal axon compartment
Procedure: Microfluidic chambers cultures were prepared as described (see, e.g., Fenstermacher et al., Nature Neuroscience, 19:690-696 (2016)), with modifications. Briefly, 3×10^4E15 DRG neurons (4 μl volume) were plated into one channel of a microfluidic device (Xona Microfluidics, SND450) affixed to a PDL/laminin-coated cover glass (Fisherbrand Microscope Cover Glass; 24×40-1.5). Cells were plated in media with 0.3 μM AraC; 50 ng/mL NGF+BDNF was added to cell body wells, and 100 ng/ml was added to axon wells. On day 2, cell body neurotrophins were reduced to 10 ng/ml. On day 4, cell body neurotrophins were reduced to 1 ng/ml and axon neurotrophins were reduced to 10 ng/ml. For paclitaxel treatment experiments, 60 μM paclitaxel or 0.1% DMSO vehicle control was added on day 5 to axon wells for 48 hours. Cells were fixed at room temperature with 4% PFA diluted 1:2 in media for 10 min, then undiluted 4% PFA for an additional 10 min.
Tetramethylrhodamine ethyl ester measurements of mitochondrial membrane potential. […] Fluorescence intensity of axonal mitochondria was measured by dividing the fluorescence intensity of each mitochondria (Fm) by the background fluorescence intensity of a nearby cytoplasmic region (Fc). Fluorescence intensity was measured using NIH ImageJ software for 80 mitochondria per condition across three experiments, by an observer blind to condition.

mice = assay: Accelerating RotaRod motor function test; format: in vivo, mouse; conditions: paclitaxel-treated mice, 4 mg/kg every other day for 8 days
Procedure: Paclitaxel treatment and behavioral testing. 2 month old age-matched bclw−/− and bclw+/+ mice (17-30 g) of either sex were injected intraperitoneally (IP) with 4 mg/kg paclitaxel (Bristol-Myers Squibb) every other day for 8 days (4 total injections). Paclitaxel was prepared as 1 part 6 mg/ml paclitaxel stock solution diluted in vehicle (1:1 v/v Cremophor EL [EMD Millipore] and dehydrated ethanol) and 2 parts sterile saline and injected at 10 μl/g. Control mice were injected with 1 part vehicle and 2 parts saline. […] For three days prior to the baseline testing, mice were weighed, trained on an automated RotaRod apparatus (4 rpm for 1 min without falling), and habituated in von Frey cages. The next two days, baseline behavioral performance was assessed and averaged. The first paclitaxel injection was given three days later, and mice were weighed and behaviorally tested 10 days after the final injection. To assay motor function, mice were placed on the RotaRod with a ramp of 4-40 rpm and 0.4 rpm/sec acceleration, and latency to fall was measured. […] Withdrawal threshold was determined to be the applied force at which the animal withdrew the stimulated paw on at least 2 of 10 applications. […] Mouse behavior was assessed by an experimenter blind to genotype and condition.

E15 DRG sensory neurons = assay: Apoptosis analysis (condensed/total nuclei) in cell body compartment; format: cell-based, rat; conditions: paclitaxel to either subcellular compartment
Procedure: Cell culture. Compartmented chamber (Campenot) cultures were prepared as described (see, e.g., Fenstermacher et al., Springer Protocols: Neuromethods, 103:105-124 (2015)), with modifications. Briefly, DRGs from embryonic day 15 (E15) rats of either sex were dissected and trypsinized. DRGs (1.2×10^5 cells) were plated in the center compartment of a Teflon divider (Camp10, Tyler Research; Campenot, 1982) affixed to a p35 culture dish coated with growth factor reduced Matrigel basement membrane (BD Biosciences) 1:45 in DMEM. Cultures were maintained in media consisting of Neurobasal (Invitrogen) with 2% B27 supplement (Invitrogen), 1% penicillin-streptomycin, 1% GlutaMAX (Life Technologies), 0.08% glucose, and 0.3 μM cytosine arabinoside (AraC) at 37° C., 7.5% CO2; BDNF+NGF (PeproTech) were added to the cell body compartment at a concentration of 10 ng/ml and to the axon compartment at a concentration of 100 ng/ml for 2d. On day 3, media was replaced and the AraC was omitted. On day 5, neurotrophins were removed from the cell body compartment and reduced to 1 ng/ml in the axon compartments for 3-5 days. […]
Axonal degeneration assay. […] Images of distal axon tips were obtained using a 40× air objective, and axonal degeneration was quantified as a degeneration index, as previously described (Cosker et al., Neuroscience, 33:5195-5207 (2013)). […]

calpain = assay: Calpain protease activity luminescence assay; format: cell-based, rat; conditions: DRG neurons treated 48 hours with paclitaxel, normalized to DMSO
Procedure: Calpain protease activity luminescence assay. DRG neurons in mass cultures were treated with vehicle (0.1% DMSO for 48h), paclitaxel (30 nM, 600 nM, or 1.2 μM for 48 hours), or calcium chloride (3 mM for 24 hours). Cultures were harvested in 1× Passive Lysis Buffer (Promega). The resulting lysate was spun 10,000×g for 5 min at 4° C., and 50 μL supernatant was combined with 50 μL Calpain-Glo Reagent (Promega) in a 96 well plate. The plate was shaken briefly and incubated for 40 min in the dark; luminescence intensity was measured with a microplate reader and normalized to protein concentration.

SMILES: CC(=O)O[C@H]1C(=O)[C@@]2(C)[C@H]([C@H](OC(=O)c3ccccc3)[C@]3(O)C[C@H](OC(=O)[C@H](O)[C@@H](NC(=O)c4ccccc4)c4ccccc4)C(C)=C1C3(C)C)[C@]1(OC(C)=O)CO[C@@H]1C[C@@H]2O [paclitaxel]
- axonal mitochondrial membrane potential (TMRE Fm/Fc) [1]: reduced axonal mitochondrial membrane potential
- motor function (latency to fall) (mice): normal motor function
- cell body apoptosis assessed by nuclear condensation (E15 DRG sensory neurons): did not induce cell body apoptosis
- calpain activity (luminescence) (calpain): increased calpain activity in a dose-dependent manner
